This is an account of results in ChEMBL document CHEMBL1140285, “Synthesis and ocular effects of imidazole nitrolic acids” (2005).

Activity calls are given as the source filed them. No cut-off for these calls is given here.

Assay [1] deals with Sus scrofa. The assay can be described thus: Increase in NOx concentration in porcineiris-ciliary body after administration of compound at the concentrations of 10 uM; control value is 0.36.
Assay [2] deals with Sus scrofa. The assay can be described thus: Increase in NOx concentration in porcineiris-ciliary body after administration of compound at the concentrations of 100 uM; control value is 0.36.
The subject of assay [3] is Sus scrofa. As to the kind of experiment: Increase in cGMP concentration in porcineiris-ciliary body after administration of compound at the concentrations of 10 uM; control value is 0.46.
In assay [4] the test system is Sus scrofa. As to the kind of experiment: Increase in cGMP concentration in porcineiris-ciliary body after administration of compound at the concentrations of 100 uM; control value is 0.46.
In assay [5] the test system is Oryctolagus cuniculus. As to the kind of experiment: Maximal decrease in IOP observed with in 24 hours after intravitreal administration of the compound; NE is no effect on IOP. It counts as functional, organism-based.
In assay [6] the test system is Sus scrofa. The assay can be described thus: Increase in nitrite concentration in porcineiris-ciliary body after administration of compound at the concentrations of 10 uM; control value is 0.15.
In assay [7] the test system is Sus scrofa. The assay can be described thus: Increase in nitrite concentration in porcineiris-ciliary body after administration of compound at the concentrations of 100 uM; control value is 0.15.
Assay [8] has as its system Oryctolagus cuniculus. The assay can be described thus: Increase in NOx concentration in porcineiris-ciliary body after administration of compound at the concentrations of 10 uM and 100 uM; control value is 0.36; NE is no effect on IOP. Type of assay: functional.
Assay [9] deals with Oryctolagus cuniculus. The assay can be described thus: Increase in nitrite concentration in porcineiris-ciliary body after administration of compound at the concentrations of 10 uM and 100 uM; control value is 0.15; NE is no effect on IOP. Type of assay: functional.
Assay [10] relates to Oryctolagus cuniculus. As to the kind of experiment: Increase in cGMP concentration in aqueous humor after intravitreal administration of compound in rabbits; control value is 9.17. Type of assay: functional, Aqueous humor of eyeball.
For assay [11], the system named is Oryctolagus cuniculus. The assay can be described thus: Maximal decrease in IOP observed with […] after intravitreal administration of the compound at the concentration of 20 mM. Type of assay: functional.
Assay [12] relates to Oryctolagus cuniculus. As to the kind of experiment: Increase in NOx concentration in plasma after intravitreal administration of compound in rabbits; control value is 408.59. Type of assay: functional.
Assay [13] concerns Oryctolagus cuniculus. The assay can be described thus: Increase in nitrite concentration in plasma after intravitreal administration of compound in rabbits; control value is 0.98. Type of assay: functional.
Assay [14] concerns Oryctolagus cuniculus. As to the kind of experiment: Increase in NOx concentration in aqueous humor after intravitreal administration of compound in rabbits; control value is 500.86. Type of assay: functional, Aqueous humor of eyeball.
The subject of assay [15] is Oryctolagus cuniculus. As to the kind of experiment: Increase in nitrite concentration in aqueous humor after intravitreal administration of compound in rabbits; control value is 1.32. It counts as functional, Aqueous humor of eyeball.
In assay [16] the test system is Oryctolagus cuniculus. The assay can be described thus: Increase in nitrite concentration in aqueous humor after topical administration of compound in rabbits; control value is 1.31. Type of assay: functional, Aqueous humor of eyeball.
Assay [17] has as its system Oryctolagus cuniculus. The assay can be described thus: Increase in NOx concentration in plasma after topical administration of compound in rabbits; control value is 408.59. Type of assay: functional.
Assay [18] concerns Oryctolagus cuniculus. The assay can be described thus: Increase in nitrite concentration in plasma after topical administration of compound in rabbits; control value is 0.98. It counts as functional.
Assay [19] concerns Oryctolagus cuniculus. The assay can be described thus: Increase in NOx concentration in aqueous humor after topical administration of compound in rabbits; control value is 309.09. Type of assay: functional, Aqueous humor of eyeball.
The test system of assay [20] is Oryctolagus cuniculus. The assay can be described thus: Increase in cGMP concentration in aqueous humor after topical administration of compound in rabbits; control value is 16.10. It counts as functional, Aqueous humor of eyeball.
For assay [21], the system named is Oryctolagus cuniculus. The assay can be described thus: Maximal decrease in IOP observed with in 24 hours after intravitreal administration of the compound; NE is no effect. Type of assay: functional, organism-based.
Assay [22] has as its system Oryctolagus cuniculus. As to the kind of experiment: Increase in NOx concentration in porcineiris-ciliary body after administration of compound at the concentrations of 10 uM and 100 uM; NE is no effect. Type of assay: functional.
Assay [23] deals with Oryctolagus cuniculus. The assay can be described thus: Maximal decrease in IOP observed with in 24 hours after intravitreal administration of the compound;NE is no effect on IOP. Type of assay: functional, organism-based.
The subject of assay [24] is Oryctolagus cuniculus. The assay can be described thus: Increase in nitrite concentration in aqueous humor after intravitreal administration of compound in rabbits; control value is 2.40. Type of assay: functional, Aqueous humor of eyeball.
Assay [25] relates to Oryctolagus cuniculus. As to the kind of experiment: Maximal decrease in IOP observed with in 24 hours after intravitreal administration of the compound at the concentration of 20 mM. It counts as functional.
Assay [26] has as its system Oryctolagus cuniculus. The assay can be described thus: Increase in cGMP concentration in aqueous humor after intravitreal administration of compound in rabbits; control value is 14.31. It counts as functional, Aqueous humor of eyeball.
Assay [27] deals with Oryctolagus cuniculus. As to the kind of experiment: Increase in NOx concentration in porcineiris-ciliary body after administration of compound at the concentrations of 10 uM and 100 uM; control value is 0.36. Type of assay: functional.
The test system of assay [28] is Oryctolagus cuniculus. The assay can be described thus: Increase in NOx concentration in aqueous humor after intravitreal administration of compound in rabbits; control value is 450.31. Type of assay: functional, Aqueous humor of eyeball.

As for `Cl.O/N=C/c1cncn1Cc1ccccc1`, the results for the Increase in concentration with Sus scrofa [1] and in the assay on Sus scrofa [2] were 1.97 µM and 2.21 µM, respectively. The cGMP concentration in the assay with Sus scrofa [3] and with Sus scrofa [4] was 0.58 pmol/mg prot throughout.
With `O=[N+]([O-])/C(=N\O)c1c[nH]c(-c2ccccc2)n1`, the “Maximal decrease in IOP” value with Oryctolagus cuniculus [5] was “No effect”.
On to `Cn1cncc1/C(=N/O)[N+](=O)[O-]` [listing 1 of 2 here], for which the Increase in concentration in the assay on Sus scrofa [1] turned out to be 3.38 µM; in the assay with Sus scrofa [2] it was 29.96 µM; with Sus scrofa [6] it was 3.46 µM; in the assay on Sus scrofa [7], 32.07 µM. Moreover, the results for the cGMP concentration in the assay on Sus scrofa [3] and in the assay on Sus scrofa [4] were 0.87 pmol/mg prot and 1.19 pmol/mg prot, respectively.
For the compound `Cn1cncc1/C=N/O`, the “Maximal decrease in IOP” value in the assay with Oryctolagus cuniculus [5] was “No effect”. In addition, the Increase in concentration result in the assay on Oryctolagus cuniculus [8] and with Oryctolagus cuniculus [9] was “No effect” each time. Besides, the cGMP concentration in the assay on Sus scrofa [3] was 0.51 pmol/mg prot; in the assay with Sus scrofa [4], 0.58 pmol/mg prot.
Turning to `O/N=C/c1cncn1Cc1ccccc1` [listing 1 of 2 here], the “Maximal decrease in IOP” value in the assay on Oryctolagus cuniculus [5] is “No effect”. For the same compound, the Increase in concentration entry in the assay with Oryctolagus cuniculus [8] and in the assay on Oryctolagus cuniculus [9] was “No effect” throughout.
Turning to `Cn1cncc1/C(=N/O)[N+](=O)[O-].O=[N+]([O-])O`, the Increase in concentration is 9.41 pmol/mg prot with Oryctolagus cuniculus [10]; 425.49 µM with Oryctolagus cuniculus [12]; 0.75 µM in the assay on Oryctolagus cuniculus [13]; 524.29 µM with Oryctolagus cuniculus [14]; 10.32 µM in the assay with Oryctolagus cuniculus [15]; 4.87 µM in the assay on Sus scrofa [1]. Also, the Increase in concentration in the assay with Sus scrofa [2] came to 51.95 µM; with Sus scrofa [6], 2.68 µM; in the assay on Sus scrofa [7] it was 28.05 µM. Besides, the “Maximal decrease in IOP” value in the assay on Oryctolagus cuniculus [11] is -4 mmHg. The cGMP concentration with Sus scrofa [3] is recorded as 1.01 pmol/mg prot; with Sus scrofa [4] it was 2.76 pmol/mg prot.
For `O=[N+]([O-])/C(=N\O)c1cncn1Cc1ccccc1`, the Increase in concentration is 1.61 µM in the assay on Oryctolagus cuniculus [16]; 379.43 µM in the assay with Oryctolagus cuniculus [17]; 0.87 µM in the assay on Oryctolagus cuniculus [18]; 302.19 µM with Oryctolagus cuniculus [19]; 16.79 pmol/mg prot in the assay with Oryctolagus cuniculus [20]; 2.01 µM with Sus scrofa [1]. Besides, the Increase in concentration in the assay with Sus scrofa [2] was 24.6 µM; in the assay with Sus scrofa [6], 2.15 µM; with Sus scrofa [7], 24.44 µM. For the same compound, the “Maximal decrease in IOP” value in the assay on Oryctolagus cuniculus [5] was “No effect”. In addition, the cGMP concentration is reported as 0.46 pmol/mg prot in the assay with Sus scrofa [3] and 3.29 pmol/mg prot with Sus scrofa [4].
For the compound `O=[N+]([O-])/C(=N\O)c1ncc[nH]1`, in the assay with Oryctolagus cuniculus [21], the “Maximal decrease in IOP” value was “inactive”. Further, the Increase in concentration entry in the assay on Oryctolagus cuniculus [22] was “inactive”.
Regarding `Cc1[nH]cnc1/C(=N/O)[N+](=O)[O-]`, the “Maximal decrease in IOP” value in the assay with Oryctolagus cuniculus [23] is “No effect”. The Increase in concentration came to 3.06 µM in the assay on Sus scrofa [1], 30.62 µM with Sus scrofa [2], 3.62 µM in the assay with Sus scrofa [6] and 31.22 µM with Sus scrofa [7]. Moreover, the cGMP concentration stood at 0.6 pmol/mg prot in the assay on Sus scrofa [3] and 1.22 pmol/mg prot in the assay on Sus scrofa [4].
As for `O=[N+]([O-])/C(=N\O)c1c[nH]cn1`, the Increase in concentration in the assay with Oryctolagus cuniculus [24] is 2.49 µM; in the assay with Oryctolagus cuniculus [12], 469.42 µM; in the assay on Oryctolagus cuniculus [13], 1.38 µM; with Oryctolagus cuniculus [26] it was 21.77 pmol/mg prot; in the assay on Oryctolagus cuniculus [27] it was “No effect”; with Oryctolagus cuniculus [28], 451.94 µM. For the same compound, the Increase in concentration with Sus scrofa [6] and with Sus scrofa [7] was 0.18 µM each time. Also, in the assay on Oryctolagus cuniculus [25], the “Maximal decrease in IOP” value is -7.3 mmHg. The cGMP concentration with Sus scrofa [3] worked out at 0.51 pmol/mg prot; in the assay with Sus scrofa [4], 0.55 pmol/mg prot.
Consider `O=Cc1cncn1Cc1ccccc1`, for which the “Maximal decrease in IOP” value with Oryctolagus cuniculus [5] is “No effect”. Besides, the Increase in concentration result in the assay with Oryctolagus cuniculus [8] and with Oryctolagus cuniculus [9] was “No effect” in each case. Also, the cGMP concentration with Sus scrofa [3] is 0.3 pmol/mg prot; in the assay with Sus scrofa [4] it was 0.38 pmol/mg prot.
As to `Cn1cncc1/C(=N/O)[N+](=O)[O-]` [listing 2 of 2 here], the “Maximal decrease in IOP” value with Oryctolagus cuniculus [5] was “No effect”.
The compound `O/N=C/c1cncn1Cc1ccccc1` [listing 2 of 2 here] returned a cGMP concentration in the assay on Sus scrofa [3] of 0.3 pmol/mg prot.
In the case of `Cn1cncc1C=O`, the “Maximal decrease in IOP” value with Oryctolagus cuniculus [5] was “No effect”. The Increase in concentration with Sus scrofa [1] amounted to 0.63 µM; in the assay with Sus scrofa [2], 0.09 µM; with Sus scrofa [6], 0.34 µM; in the assay with Sus scrofa [7], 0.62 µM. Further, the cGMP concentration in the assay on Sus scrofa [3] was 0.38 pmol/mg prot; in the assay on Sus scrofa [4], 0.5 pmol/mg prot.
